This note sets out measurements from US8338641B2, “Method for treating atypical facial pain” (UCB Pharma GmbH, priority 2004, dated 2012).

The structures appear in SMILES notation. “Also recorded” adds a separate entry of the source.

Data set [1] deals with rats with infraorbital nerve injury. Description: Mechanical sensitivity (von Frey filaments) after photochemically-induced ischemic infraorbital nerve (IoN) injury, model of trigeminal neuropathic pain. Particulars: for effect on mechanical hypersensitivity (response threshold to von Frey stimulation): 14-16 days after IoN injury. In kind it is in vivo, rat. Here is the method: (§1) Male and female Sprague-Dawley rats (Möllegård, Denmark) weighing 200-250 g at the start of the experiments were used. All experimental procedures were approved by the local research ethics committee.
Rats were anesthetized with chloral hydrate. The left IoN was exposed via a longitudinal incision at the maxillary region and all branches of the nerve were carefully lifted on a glass hook. A piece of aluminium foil was placed under the nerve and the nerve was irradiated for 6 min with the tunable argon ion laser. The rat was positioned so that the laser beam was perpendicular and transversal to the exposed nerve. Immediately before irradiation erythrosin B was injected i.v. and the injection was repeated after 5 min. After irradiation the wound was closed in layers.
Mechanical sensitivity was tested with a series of von Frey filaments. The rat was gently held by the experimenter and the von Frey filaments were applied in ascending order to the IoN territory on the hairy skin of the vibrissal pad. The stimulation with each filament consisted of four consecutive applications at 1/s on the injured and then on the contralateral side. […] The rats were habituated to the testing procedure for several days before nerve injury and baseline response was determined in two sessions. Testing was carried out 3, 7, 10 and 14 d after the injury to assess the development of mechanical hypersensitivity. The effect of SPM 927 (7.5, 15, and 30 mg/kg) was tested 14-16 days after injury when mechanical hypersensitivity was well established. Measurements were taken 30 min, 1 h, 2 h, and 3 h following drug injection.
(§2) SPM 927 was dissolved in physiological saline and injected intraperitoneally. The data are expressed as median±M.A.D. and analysed with Wilcoxon signed-ranks test.

The test system is the same in data set [2]. The data set can be described thus: Motor deficits observed in rats with IoN injury after drug injection. Particulars: i.p., doses 7.5-30 mg/kg. In kind it is in vivo, rat. The procedure:
as §1, §2

Take `COC[C@@H](NC(C)=O)C(=O)NCc1ccccc1` [SPM 927, (R)-2-acetamide-N-benzyl-3-methoxypropionamide]: the “effect on mechanical hypersensitivity (response threshold to von Frey stimulation)” value was “no effect” in data set [1] (female rats, 7.5 mg/kg i.p.); “significantly and markedly alleviated mechanical hypersensitivity” in data set [1] (female rats, 15 mg/kg i.p.); “significantly and markedly alleviated mechanical hypersensitivity” in data set [1] (female rats, 20 mg/kg i.p.); “did not alleviate mechanical hypersensitivity” in data set [1] (male rats, 15 mg/kg i.p.); “did not alleviate mechanical hypersensitivity” in data set [1] (male rats, 20 mg/kg i.p.); “significantly alleviated mechanical hypersensitivity for 3 h” in data set [1] (male rats, 30 mg/kg i.p.). Besides, the “overall analgesic or/and anti-allodynic effect in rat model of trigeminal neuropathic pain” value in data set [1] (systemic, single dose administration) is recorded as “dose-dependent analgesic or/and anti-allodynic effect; also recorded: significant efficacy in reducing mechanical hypersensitivity”. In addition, the motor deficits result in data set [2] was “did not cause motor deficits”.
